Results from ChEMBL document CHEMBL6071126, “Recent advances in the chemistry and biology of oleanolic acid and its derivatives” (Eur J Med Chem, 2024).
Converted amounts (≈) assume the structure as drawn.

How the values were obtained:
HepG2 [1] = assay: Antiproliferative activity against human HepG2 cells assessed as reduction in cell growth incubated for 72 hrs by MTT assay; type: functional, cell-based; conditions: HepG2, 72 h
HeLa = assay: Cytotoxicity against human HeLa cells assessed as reduction in cell viability incubated for 48 hrs by MTT assay; type: functional, cell-based
[2] = Potency index, ratio of OA IC50 to test compound IC50 for anti-inflammatory activity in LPS-induced mouse BV-2 cells assessed as inhibition of NO production; type: functional
[3] = Inhibition of Clostridium histolyticum Collagenase using DQ gelatin as substrate measured after 30 mins by fluorescence based microplate reader analysis; parameters: species or system Hathewaya histolytica
Hathewaya histolytica = assay: Inhibition of Clostridium histolyticum Collagenase at 250 ug/ml relative to control; conditions: dose 250.0 µg/ml
Alpha glucosidase = Alpha glucosidase (Homo sapiens, UniProt O43451+P10253+P14410+Q2M2H8); assay: Inhibition of Alpha glucosidase (unknown origin); type: protein assay
A549 = assay: Cytotoxicity against human A549 cells assessed as reduction in cell viability incubated for 72 hrs by MTT assay; conditions: A549, 72 h
HepG2 [4] = assay: Cytotoxicity against human HepG2 cells assessed as reduction in cell viability incubated for 72 hrs by MTT assay; conditions: HepG2, 72 h
BGC-823 = assay: Cytotoxicity against human BGC-823 cells assessed as reduction in cell viability incubated for 72 hrs by MTT assay; type: functional, cell-based; conditions: BGC-823, 72 h
MCF7 = assay: Cytotoxicity against human MCF7 cells assessed as reduction in cell viability incubated for 72 hrs by MTT assay; conditions: MCF7, 72 h
PC-3 = assay: Cytotoxicity against human PC-3 cells assessed as reduction in cell viability incubated for 72 hrs by MTT assay; type: functional, cell-based; conditions: PC-3, 72 h
[5] = Apparent permeability across apical to basolateral side in human Caco-2 cells at 10 uM incubated for 90 mins at pH 7.4 by LC/MS analysis; type: ADME, cell-based; conditions: Caco-2, pH 7.4
[6] = Oral bioavailability in rat; type: ADME, organism-based; conditions: in vivo
[7] = Aqueous solubility of compound; type: physicochemical

CON(C[C@]12CCC(C)(C)CC1C1=CCC3[C@@]4(C)CC[C@H](O)C(C)(C)C4CC[C@@]3(C)[C@]1(C)CC2)[C@@H]1O[C@H](CO)[C@@H](O)[C@H](O)[C@H]1O (stereo partly specified)
IC50 (HepG2 [1]): 2100 nM

Cc1ccccc1COC(=O)[C@]12CCC(C)(C)CC1C1=CCC3[C@@]4(C)CC[C@H](OC(=O)/C=C/c5ccc([N+](=O)[O-])cc5)C(C)(C)C4CC[C@@]3(C)[C@]1(C)CC2 (stereo partly specified)
IC50 (HeLa): 1350 nM

COC(=O)[C@]12CCC(C)(C)CC1C1=CC(=O)C3[C@@]4(C)Cc5c([nH]c6ccc(C#N)cc56)C(C)(C)C4CC[C@@]3(C)[C@]1(C)CC2 (stereo partly specified)
Ratio IC50 [2]: 1.93

CC(C)[C@H](NC(=O)[C@H](CCCCN)NC(=O)[C@]12CCC(C)(C)CC1C1=CCC3[C@@]4(C)CC[C@H](O)C(C)(C)C4CC[C@@]3(C)[C@]1(C)CC2)C(=O)N[C@@H](CCCCN)C(=O)O (stereo partly specified)
IC50 [3]: 48.8 µg/mL (≈ 60.1 µM) | inhibition (Hathewaya histolytica): 100%

CC1(C)CC[C@]2(C(=O)C(=O)O)CC[C@]3(C)C(=CCC4[C@@]5(C)Cc6cnn(-c7ccc(Cl)cc7)c6C(C)(C)C5CC[C@]43C)C2C1 (stereo partly specified)
IC50 (Alpha glucosidase): 2640 nM

COC(=O)[C@]12CCC(C)(C)CC1C1=CC(=O)C3[C@@]4(C)Cc5c([nH]c6cc(F)cc(F)c56)C(C)(C)C4CC[C@@]3(C)[C@]1(C)CC2 (stereo partly specified)
Ratio IC50 [2]: 2.41

CC1(C)CC[C@]2(C(=O)OCc3ccccc3Cl)CC[C@]3(C)C(=CCC4[C@@]5(C)CC[C@H](O)C(C)(C)C5CC[C@]43C)C2C1 (stereo partly specified)
IC50 (HeLa): 1550 nM

O=c1[nH]cc(F)c(=O)[nH]1 [FLUOROURACIL]
IC50 (A549): < 1000 nM | IC50 (HepG2 [4]): < 1000 nM | IC50 (BGC-823): < 1000 nM | IC50 (MCF7): < 1000 nM | IC50 (PC-3): < 1000 nM

CC1(C)CC[C@]2(C(=O)O)CC[C@]3(C)C(=CC[C@@H]4[C@@]5(C)CC[C@H](O)C(C)(C)[C@@H]5CC[C@]43C)[C@@H]2C1 [OLEANOLIC_ACID]
Papp A→B at 1.5 h, 10 µM [5]: 1.1 ×10⁻⁶ cm/s | bioavailability [6]: 0.7% | solubility [7]: < 1 µg/mL
